Measurements published in patent EP0264232A1, “2-Azetidinone derivatives” (TAISHO PHARMACEUTICAL CO. LTD, priority 1986, dated 1988).

Tested on: ICR strain mice
Conditions: mouse, in vivo, po, 300 mg/kg
Description: Six male ICR strain mice weighing 20 g for each group were administered orally with 300 mg/kg of the test drug (all the test drugs were used in the form of the suspension in 0.5% CMC). Two hours after administration, 5 mm of the tail from the top was cut under pentobarbital anesthesia, and the bleeding was observed by tapping at the cutting site with a filter paper every 15 seconds. The time when the bleeding was observed stopping for one minute is defined as the arrest point of bleeding, and the duration required from the time when the cutting was done to the arrest point of bleeding is defined as the bleeding time. The observation was carried out up to 1200 seconds. Ticlopidine was used as a positive control.

Compound | Bleeding time ± standard error
CC(C=C1C(=O)N(c2ccccc2)C1c1ccccc1)=NOCC(=O)O (centres unmarked) [Compound 1, 3-(2-carboxymethoxyiminopropylidene)-1,4-diphenyl-2-azetidinone] | 417.5 ± 171.22 s
Clc1ccccc1CN1CCc2sccc2C1 [ticlopidine] | 1127.5 ± 72.50 (note) seconds
